Reference: patent publication US20250122191A1, “COMPOUNDS AS BCL-2 INHIBITORS” (Fochon Biosciences, Ltd, priority 2021, published 2025)
pIC50: −log10 of the molar value.

Experiments:
Assay type in all cases: cell-based
[1] = test system: Toledo cells; assay: Cell proliferation assay (MTS), Toledo cells; settings: Homo sapiens, 72 h
How it was run: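 Toledo cells (RPMI-1640, 10% FBS) seeded at 30000 cells/well, rested 4 h, then exposed 72 h at 37 °C, 5% CO2 to compound at nine final concentrations, 1.5–10000 nM. Viability by MTS (2 h), absorbance at 490 nm. IC50 from the concentration-response.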

[2] = test system: RS4;11-BCL-2 G101V cells; assay: Cell proliferation assay (MTS), RS4;11-BCL-2 G101V engineered cells; settings: Homo sapiens, 120 h, read-out: RS4, 11 BCL2-G101V IC50
How it was run: (§1)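 Proliferation IC50 in RS4;11 lines engineered with BCL-2 mutations, measured by MTS at 490 nm after 72 h (D103E, D103Y) or 120 h (G101V, F104L) compound treatment at 37 °C.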

[3] = test system: RS4;11-BCL-2 F104L cells; assay: Cell proliferation assay (MTS), RS4;11-BCL-2 F104L engineered cells; settings: Homo sapiens, 120 h, read-out: RS4, 11 BCL2-F104L IC50
How it was run: as §1

[4] = test system: RS4;11-BCL-2 D103E cells; assay: Cell proliferation assay (MTS), RS4;11-BCL-2 D103E engineered cells; settings: Homo sapiens, 72 h, read-out: RS4, 11 BCL2-D103E IC50
How it was run: as §1

| Structure (SMILES) | pIC50 [1] | pIC50 [2] | pIC50 [3] | pIC50 [4] |
| --- | --- | --- | --- | --- |
| COc1nc2[nH]cc(F)c2cc1Oc1cc(N2CCC3(CC2)CC(N2CCN(C[C@@H]4COCCO4)C[C@H]2c2ccccc2C(C)C)C3)ccc1C(=O)NS(=O)(=O)c1cnc(NC[C@H]2CC[C@](C)(O)CC2)c([N+](=O)[O-])c1 [Example 334, 4-(2-((R)-4-(((R)-1,4-dioxan-2-yl)methyl)-2-(2-isopropylphenyl)piperazin-1-yl)-7-azaspiro[3.5]nonan-7-yl)-2-((3-fluoro-6-methoxy-1H-pyrrolo[2,3-b]pyridin-5-yl)oxy)-N-((6-((((1r,4r)-4-hydroxy-4-methylcyclohexyl)methyl)amino)-5-nitropyridin-3-yl)sulfonyl)benzamide] | 9.00 | 9.00 | 9.00 | 9.00 |
| COc1ccc(CN2CCN(C3CC4(CCN(c5ccc(C(=O)NS(=O)(=O)c6cnc(NC[C@H]7CC[C@](C)(O)CC7)c([N+](=O)[O-])c6)c(Oc6cnc7[nH]cc(F)c7c6)c5)CC4)C3)[C@H](c3ccccc3C(C)C)C2)cc1 [Example 71, 2-((3-fluoro-1H-pyrrolo[2,3-b]pyridin-5-yl)oxy)-N-((6-((((1r,4r)-4-hydroxy-4-methylcyclohexyl)methyl)amino)-5-nitropyridin-3-yl)sulfonyl)-4-(2-((R)-2-(2-isopropylphenyl)-4-(4-methoxybenzyl)piperazin-1-yl)-7-azaspiro[3.5]nonan-7-yl)benzamide] | 9.00 | 9.00 | 9.00 | 9.00 |
| COc1cc(CN2CCN(C3CC4(CCN(c5ccc(C(=O)NS(=O)(=O)c6cnc(NC[C@H]7CC[C@](C)(O)CC7)c([N+](=O)[O-])c6)c(Oc6cc7c(F)c[nH]c7nc6OC)c5)CC4)C3)[C@H](c3ccccc3C(C)C)C2)cc(Cl)n1 [Example 54, 4-(2-((R)-4-((2-chloro-6-methoxypyridin-4-yl)methyl)-2-(2-isopropylphenyl)piperazin-1-yl)-7-azaspiro [3.5]nonan-7-yl)-2-((3-fluoro-6-methoxy-1H-pyrrolo[2,3-b]pyridin-5-yl)oxy)-N-((6-((((1r,4r)-4-hydroxy-4-methylcyclohexyl)methyl)amino)-5-nitropyridin-3-yl)sulfonyl)benzamide] | – | 9.00 | 9.00 | 9.00 |
| CC(C)c1ccccc1[C@@H]1CN(Cc2ccc(C#N)cc2)CCN1C1CC2(CCN(c3ccc(C(=O)NS(=O)(=O)c4cnc(NC[C@H]5CC[C@](C)(O)CC5)c([N+](=O)[O-])c4)c(Oc4cnc5[nH]cc(F)c5c4)c3)CC2)C1 [Example 237, 4-(2-((R)-4-(4-cyanobenzyl)-2-(2-isopropylphenyl)piperazin-1-yl)-7-azaspiro[3.5]nonan-7-yl)-2-((3-fluoro-1H-pyrrolo[2,3-b]pyridin-5-yl)oxy)-N-((6-((((1r,4r)-4-hydroxy-4-methylcyclohexyl)methyl)amino)-5-nitropyridin-3-yl)sulfonyl)benzamide] | 9.00 | 9.00 | 9.00 | 9.00 |
| CC(C)c1ccccc1[C@@H]1CN(Cc2ccc3c(c2)CCO3)CCN1C1CC2(CCN(c3ccc(C(=O)NS(=O)(=O)c4cnc(NC[C@H]5CC[C@](C)(O)CC5)c([N+](=O)[O-])c4)c(Oc4cnc5[nH]cc(F)c5c4)c3)CC2)C1 [Example 324, 4-(2-((R)-4-((2,3-dihydrobenzofuran-5-yl)methyl)-2-(2-isopropylphenyl)piperazin-1-yl)-7-azaspiro[3.5]nonan-7-yl)-2-((3-fluoro-1H-pyrrolo[2,3-b]pyridin-5-yl)oxy)-N-((6-((((1r,4r)-4-hydroxy-4-methylcyclohexyl)methyl)amino)-5-nitropyridin-3-yl)sulfonyl)benzamide] | 9.00 | 9.00 | 9.00 | 9.00 |
| COc1nc2[nH]cc(F)c2cc1Oc1cc(N2CCC3(CC2)CC(N2CCN(C(C)C)C[C@H]2c2ccccc2C(C)C)C3)ccc1C(=O)NS(=O)(=O)c1cnc(NC[C@H]2CC[C@](C)(O)CC2)c([N+](=O)[O-])c1 [Example 99, 2-((3-fluoro-6-methoxy-1H-pyrrolo[2,3-b]pyridin-5-yl)oxy)-N-((6-((((1r,4r)-4-hydroxy-4-methylcyclohexyl)methyl)amino)-5-nitropyridin-3-yl)sulfonyl)-4-(2-((R)-4-isopropyl-2-(2-isopropylphenyl)piperazin-1-yl)-7-azaspiro[3.5]nonan-7-yl)benzamide] | – | 9.00 | 9.00 | 9.00 |
| COc1nc(CN2CCN(C3CC4(CCN(c5ccc(C(=O)NS(=O)(=O)c6cnc(NC[C@H]7CC[C@](C)(O)CC7)c([N+](=O)[O-])c6)c(Oc6cnc7[nH]cc(F)c7c6)c5)CC4)C3)[C@H](c3ccccc3C(C)C)C2)ccc1C1CC1 [Example 291, 4-(2-((R)-4-((5-cyclopropyl-6-methoxypyridin-2-yl)methyl)-2-(2-isopropylphenyl)piperazin-1-yl)-7-azaspiro[3.5]nonan-7-yl)-2-((3-fluoro-1H-pyrrolo[2,3-b]pyridin-5-yl)oxy)-N-((6-((((1r,4r)-4-hydroxy-4-methylcyclohexyl)methyl)amino)-5-nitropyridin-3-yl)sulfonyl)benzamide] | 9.00 | – | 9.00 | 9.00 |
| COc1nc2[nH]cc(F)c2cc1Oc1cc(N2CCC3(CC2)CC(N2CCN(Cc4ccnc(OCCO)c4)C[C@H]2c2ccccc2C(C)C)C3)ccc1C(=O)NS(=O)(=O)c1cnc(NC[C@H]2CC[C@](C)(O)CC2)c([N+](=O)[O-])c1 [Example 64, 2-((3-fluoro-6-methoxy-1H-pyrrolo[2,3-b]pyridin-5-yl)oxy)-N-((6-((((1r,4r)-4-hydroxy-4-methylcyclohexyl)methyl)amino)-5-nitropyridin-3-yl)sulfonyl)-4-(2-((R)-4-((2-(2-hydroxyethoxy)pyridin-4-yl)methyl)-2-(2-isopropylphenyl)piperazin-1-yl)-7-azaspiro[3.5]nonan-7-yl)benzamide] | – | 9.00 | 8.52 | 9.00 |
| CC(C)c1ccccc1[C@@H]1CN(Cc2ccncc2)CCN1C1CC2(CCN(c3ccc(C(=O)NS(=O)(=O)c4cnc(NC[C@H]5CC[C@](C)(O)CC5)c([N+](=O)[O-])c4)c(Oc4cnc5[nH]cc(F)c5c4)c3)CC2)C1 [Example 240, 2-((3-fluoro-1H-pyrrolo[2,3-b]pyridin-5-yl)oxy)-N-((6-((((1r,4r)-4-hydroxy-4-methylcyclohexyl)methyl)amino)-5-nitropyridin-3-yl)sulfonyl)-4-(2-((R)-2-(2-isopropylphenyl)-4-(pyridin-4-ylmethyl)piperazin-1-yl)-7-azaspiro[3.5]nonan-7-yl)benzamide] | 9.00 | 9.00 | 9.00 | 8.52 |
| COc1nc2[nH]cc(F)c2cc1Oc1cc(N2CCC3(CC2)CC(N2CCN(Cc4ccc(OC)c5oc(C)nc45)C[C@H]2c2ccccc2C(C)C)C3)ccc1C(=O)NS(=O)(=O)c1cnc(NC[C@H]2CC[C@](C)(O)CC2)c([N+](=O)[O-])c1 [Example 245, 2-((3-fluoro-6-methoxy-1H-pyrrolo[2,3-b]pyridin-5-yl)oxy)-N-((6-((((1r,4r)-4-hydroxy-4-methylcyclohexyl)methyl)amino)-5-nitropyridin-3-yl)sulfonyl)-4-(2-((R)-2-(2-isopropylphenyl)-4-((7-methoxy-2-methylbenzo[d]oxazol-4-yl)methyl)piperazin-1-yl)-7-azaspiro[3.5]nonan-7-yl)benzamide] | 9.00 | 9.00 | 9.00 | 9.00 |
| COc1nc2[nH]cc(F)c2cc1Oc1cc(N2CCC3(CC2)CC(N2CCN(Cc4ccc(S(C)(=O)=O)cc4)C[C@H]2c2ccccc2C(C)C)C3)ccc1C(=O)NS(=O)(=O)c1cnc(NC[C@H]2CC[C@](C)(O)CC2)c([N+](=O)[O-])c1 [Example 327, 2-((3-fluoro-6-methoxy-1H-pyrrolo[2,3-b]pyridin-5-yl)oxy)-N-((6-((((1r,4r)-4-hydroxy-4-methylcyclohexyl)methyl)amino)-5-nitropyridin-3-yl)sulfonyl)-4-(2-((R)-2-(2-isopropylphenyl)-4-(4-(methylsulfonyl)benzyl)piperazin-1-yl)-7-azaspiro[3.5]nonan-7-yl)benzamide] | 9.00 | – | 9.00 | 9.00 |
